Activity calls are given as the source filed them. The calls are words filed in the database; no cut-off is given here.
Columns and labels:
Acetylcholinesterase = Acetylcholinesterase (Homo sapiens, UniProt P22303); test: Inhibition of AChE (unknown origin) using […] as substrate incubated for 15 to 20 mins by DTNB reagent based Ellman's method
[1] = Antioxidant activity assessed as DPPH radical scavenging activity at 0.01 ug/ml incubated for 1 hr under dark condition by absorbance based assay relative to control; type: functional; conditions: dose 0.01 µg/ml
[2] = Antioxidant activity assessed as DPPH radical scavenging activity at 0.05 ug/ml incubated for 1 hr under dark condition by absorbance based assay relative to control; type: functional; conditions: dose 0.05 µg/ml
Rattus norvegicus [3] = test: Antialzheimer activity against AlCl3-induced Alzheimer's disease Wistar albino rat model assessed as improvement in GSH level in brain at 10 mg/kg,po for 6 weeks relative to control; type: functional
Rattus norvegicus [4] = test: Antialzheimer activity against AlCl3-induced Alzheimer's disease Wistar albino rat model assessed as improvement in MDA level in brain at 10 mg/kg,po for 6 weeks relative to control; type: functional
Rattus norvegicus [5] = test: Antialzheimer activity against AlCl3-induced Alzheimer's disease Wistar albino rat model assessed as change in GSH level in brain at 10 mg/kg,po for 6 weeks relative to control; type: functional
Rattus norvegicus [6] = test: Antialzheimer activity against AlCl3-induced Alzheimer's disease Wistar albino rat model assessed as improvement in cognitive ability at 10 mg/kg,po for 6 weeks by T-maze test; type: functional
Rattus norvegicus [7] = test: Antialzheimer activity against AlCl3-induced Alzheimer's disease Wistar albino rat model assessed as time taken to reach the food at 10 mg/kg,po for 6 weeks by T-maze test; type: functional
Rattus norvegicus [8] = test: Antialzheimer activity against AlCl3-induced Alzheimer's disease Wistar albino rat model assessed as MDA level in brain at 10 mg/kg,po for 6 weeks; type: functional
Rattus norvegicus [9] = test: Antialzheimer activity against AlCl3-induced Alzheimer's disease Wistar albino rat model assessed as degeneration of pyramidal neurons in hippocampus at 10 mg/kg,po for 6 weeks by hematoxylin and eosin staining based microscopic analysis; type: functional
Rattus norvegicus [10] = test: Antialzheimer activity against AlCl3-induced Alzheimer's disease Wistar albino rat model assessed as change in MDA level in brain at 10 mg/kg,po for 6 weeks relative to control; type: functional
Rattus norvegicus [11] = test: Antialzheimer activity against AlCl3-induced Alzheimer's disease Wistar albino rat model assessed as GSH level in brain at 10 mg/kg,po for 6 weeks; type: functional
Rattus norvegicus [12] = test: Antialzheimer activity against AlCl3-induced Alzheimer's disease Wistar albino rat model assessed as gliosis at 10 mg/kg,po for 6 weeks by hematoxylin and eosin staining based microscopic analysis; type: functional
[13] = Toxicity in Wistar rat assessed as ALT level in liver at 10 mg/kg,po (reference value: 27 +/- 2 U/L); type: organism-based; conditions: in vivo
[14] = Toxicity in Wistar rat assessed as red blood cell distribution width in blood at 10 mg/kg,po (reference value: 17.2 +/- 0.22 %); type: organism-based; conditions: in vivo
[15] = Toxicity in Wistar rat assessed as glucose level in liver at 10 mg/kg,po (reference value: 105 +/- 8.44 mg/dl); type: organism-based; conditions: in vivo
[16] = Toxicity in Wistar rat assessed as […] cell volume in blood at 10 mg/kg,po (reference value: 43 +/- 3.1 %); type: organism-based; conditions: in vivo
[17] = Toxicity in Wistar rat assessed as AST level in liver at 10 mg/kg,po (reference value: 67 +/- 5.1 U/L); type: organism-based; conditions: in vivo
[18] = Acute toxicity in Wistar rat assessed as mortality at 50 mg/kg,po observed after 1 month; type: organism-based; conditions: in vivo, 730 h, time 1 months
[19] = Toxicity in Wistar rat assessed as histopathological change in kidney at 10 mg/kg,po by hematoxylin and eosin staining based microscopic analysis; type: organism-based; conditions: in vivo
[20] = Toxicity in Wistar rat assessed as mean corpuscular hemoglobin in blood at 10 mg/kg,po (reference value: 19 +/- 1.77 pg); type: organism-based; conditions: in vivo
[21] = Toxicity in Wistar rat assessed as Kupffer cell proliferation in liver at 10 mg/kg,po by hematoxylin and eosin staining based microscopic analysis; type: organism-based; conditions: in vivo
[22] = Toxicity in Wistar rat assessed as mean corpuscular volume in blood at 10 mg/kg,po (reference value: 59 +/- 5 fL); type: organism-based; conditions: in vivo
[23] = Toxicity in Wistar rat assessed as mean platelet volume in blood at 10 mg/kg,po (reference value: 7.3 +/- 0.12 fL); type: organism-based; conditions: in vivo
[24] = Toxicity in Wistar rat assessed as bilirubin level in liver at 10 mg/kg,po (reference value: 0.6 +/- 0.08 mg/dl); type: organism-based; conditions: in vivo
[25] = Toxicity in Wistar rat assessed as creatinine level in liver at 10 mg/kg,po (reference value: 0.68 +/- 0.03 mg/dl); type: organism-based; conditions: in vivo
[26] = Toxicity in Wistar rat assessed as hemoglobin level in blood at 10 mg/kg,po (reference value: 14.5 +/- 1 g/dl); type: organism-based; conditions: in vivo
[27] = Acute toxicity in Wistar rat assessed as mortality at 100 mg/kg,po observed after 1 month; type: organism-based; conditions: in vivo, 730 h, time 1 months
[28] = Toxicity in Wistar rat assessed as ALP level in liver at 10 mg/kg,po (reference value: 140 +/- 6 U/L); type: organism-based; conditions: in vivo
[29] = Toxicity in Wistar rat assessed as haematocrit level in blood at 10 mg/kg,po (reference value: 38.16 +/- 2.44 %); type: organism-based; conditions: in vivo
[30] = Acute toxicity in Wistar rat assessed as mortality at 10 mg/kg,po administrated for 1 month; type: organism-based; conditions: in vivo, 730 h, time 1 months
[31] = Acute toxicity in Wistar rat assessed as mortality at 100 mg/kg,po observed after 24 hrs; type: organism-based; conditions: in vivo
[32] = Toxicity in Wistar rat assessed as urea level in liver at 10 mg/kg,po (reference value: 33.6 +/- 2.65 mg/dl); type: organism-based; conditions: in vivo
[33] = Acute toxicity in Wistar rat assessed as loose bowels at 10 mg/kg,po administrated for 1 month; type: organism-based; conditions: in vivo, 730 h, time 1 months
[34] = Acute toxicity in Wistar rat assessed as mortality at 50 mg/kg,po observed after 24 hrs; type: organism-based; conditions: in vivo
[35] = Toxicity in Wistar rat assessed as histopathological change in heart at 10 mg/kg,po by hematoxylin and eosin staining based microscopic analysis; type: organism-based; conditions: in vivo
[36] = Toxicity in Wistar rat assessed as albumin level in liver at 10 mg/kg,po (reference value: 3.28 +/- 0.43 mg/dl); type: organism-based; conditions: in vivo
[37] = Toxicity in Wistar rat assessed as histopathological change in brain at 10 mg/kg,po by hematoxylin and eosin staining based microscopic analysis; type: organism-based; conditions: in vivo
[38] = Toxicity in Wistar rat assessed as RBC level in blood at 10 mg/kg,po; type: organism-based, Erythrocyte; conditions: in vivo
Rattus norvegicus [39] = test: Antialzheimer activity against AlCl3-induced Alzheimer's disease Wistar albino rat model assessed as decrease in cellular density in hippocampal region of brain at 10 mg/kg,po for 6 weeks by hematoxylin and eosin staining based microscopic analysis; type: functional, organism-based
[40] = Toxicity in Wistar rat assessed as mean corpuscular hemoglobin concentration in blood at 10 mg/kg,po (reference value: 33.8 +/- 2.1 g/dl); type: organism-based; conditions: in vivo

Chain of Acetylcholinesterase (P22303 whole entry): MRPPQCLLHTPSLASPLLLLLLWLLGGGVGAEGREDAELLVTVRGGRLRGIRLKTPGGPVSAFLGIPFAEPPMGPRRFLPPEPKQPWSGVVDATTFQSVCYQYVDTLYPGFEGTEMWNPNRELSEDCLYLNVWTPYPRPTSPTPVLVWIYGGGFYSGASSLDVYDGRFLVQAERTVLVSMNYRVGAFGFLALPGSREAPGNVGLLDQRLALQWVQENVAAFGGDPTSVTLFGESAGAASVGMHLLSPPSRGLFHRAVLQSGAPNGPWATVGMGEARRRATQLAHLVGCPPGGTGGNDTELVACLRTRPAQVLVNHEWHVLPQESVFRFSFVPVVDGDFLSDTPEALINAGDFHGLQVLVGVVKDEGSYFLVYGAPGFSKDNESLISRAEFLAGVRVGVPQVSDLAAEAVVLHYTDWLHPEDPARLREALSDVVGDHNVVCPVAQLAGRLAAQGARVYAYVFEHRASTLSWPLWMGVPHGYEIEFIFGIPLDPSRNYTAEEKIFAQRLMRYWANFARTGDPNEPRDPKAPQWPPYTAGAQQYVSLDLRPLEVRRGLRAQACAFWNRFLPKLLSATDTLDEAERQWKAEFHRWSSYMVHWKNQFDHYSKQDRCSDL

SMILES: CCOC(=O)c1ccc(N/C=C/C(=O)c2cc3ccccc3o2)cc1
- IC50 (Acetylcholinesterase): 2.13 µM
- Activity [1]: 21.4%
- Activity [2]: 28.6%

SMILES: CC(=O)c1ccc(N/C=C/C(=O)c2cc3ccccc3o2)cc1
- IC50 (Acetylcholinesterase): 5.91 µM
- Activity [1]: 10%
- Activity [2]: 27%

SMILES: O=C(/C=C/Nc1cccc([N+](=O)[O-])c1)c1cc2ccccc2o1
- IC50 (Acetylcholinesterase): 0.736 µM
- Activity [1]: 76.1%
- Activity [2]: 82.6%

SMILES: O=C(/C=C/Nc1ccc(S(=O)(=O)Nc2ccccn2)cc1)c1cc2ccccc2o1
- IC50 (Acetylcholinesterase): 1.07 µM
- Activity [1]: 2.2%
- Activity [2]: 76.1%

SMILES: O=C(O)c1ccc(N/C=C/C(=O)c2cc3ccccc3o2)cc1
- IC50 (Acetylcholinesterase): 0.794 µM
- Activity [1]: 5.71%
- Activity [2]: 35%

SMILES: O=C(O)c1cccc(N/C=C/C(=O)c2cc3ccccc3o2)c1
- IC50 (Acetylcholinesterase): 3.77 µM
- Activity [1]: 22.5%
- Activity [2]: 65%

SMILES: Cc1ccc(N/C=C/C(=O)c2cc3ccccc3o2)cc1
- IC50 (Acetylcholinesterase): 0.397 µM
- Activity [1]: 21.3%
- Activity [2]: 40%

SMILES: COc1cc2c(cc1OC)C(=O)C(CC1CCN(Cc3ccccc3)CC1)C2 (configuration not stated) [DONEPEZIL]
- Activity (Rattus norvegicus [3]): 33.02%
- Activity (Rattus norvegicus [4]): 278.43%
- Activity (Rattus norvegicus [5]): 18.05%
- Activity (Rattus norvegicus [6]): 112.14%
- Time (Rattus norvegicus [7]): 26 s
- Activity (Rattus norvegicus [8]): 47.17 nmol
- Activity (Rattus norvegicus [9]): <10%
- Activity (Rattus norvegicus [10]): 67.86%
- Activity (Rattus norvegicus [11]): 17.62 mg
- Activity [1]: 20.4%
- Activity [2]: 30.2%
- Activity (Rattus norvegicus [12]): <10%

SMILES: O=C1O[C@H]([C@@H](O)CO)C(O)=C1O
- Activity [1]: 81%
- Activity [2]: 89%

SMILES: NS(=O)(=O)c1ccc(N/C=C/C(=O)c2cc3ccccc3o2)cc1
- IC50 (Acetylcholinesterase): 0.882 µM
- Activity [1]: 18.4%
- Activity [2]: 13%

SMILES: CC(=O)c1cccc(N/C=C/C(=O)c2cc3ccccc3o2)c1
- Activity [13]: 29 U/L
- Activity [14]: 16.6%
- Activity [15]: 115 mg/dL
- Activity (Rattus norvegicus [3]): 26.98%
- Activity (Rattus norvegicus [4]): 242.95%
- Activity [16]: 42.16%
- Activity (Rattus norvegicus [5]): 24.09%
- Activity (Rattus norvegicus [6]): 107.04%
- Time (Rattus norvegicus [7]): 27 s
- Activity [17]: 68 U/L
- Activity [18]: Non-Toxic
- Activity (Rattus norvegicus [8]): 57.14 nmol
- Activity [19]: Non-Toxic
- Activity [20]: 18.6 pg
- Activity [21]: Non-Toxic
- Activity [22]: 56 fL
- Activity (Rattus norvegicus [9]): <10%
- Activity [23]: 6.9 fL
- Activity (Rattus norvegicus [10]): 103.35%
- Activity [24]: 0.67 mg/dL
- Activity (Rattus norvegicus [11]): 16.32 mg
- Activity [25]: 0.72 mg/dL
- Activity [26]: 14.8 g/dL
- Activity [27]: Non-Toxic
- Activity [28]: 136 U/L
- IC50 (Acetylcholinesterase): 0.19 µM
- Activity [29]: 39.4%
- Activity [30]: Non-Toxic
- Activity [1]: 63.1%
- mortality at 24 h [31]: 25%
- Activity [32]: 32 mg/dL
- Activity [2]: 67.6%
- Activity [33]: Non-Toxic
- Activity [34]: Non-Toxic
- Activity (Rattus norvegicus [12]): <10%
- Activity [35]: Non-Toxic
- Activity [36]: 3.3 mg/dL
- Activity [37]: Non-Toxic
- Activity [38]: 6.29 10^6/µL
- Activity (Rattus norvegicus [39]): Active
- Activity [40]: 31 g/dL

SMILES: N=C(N)NS(=O)(=O)c1ccc(N/C=C/C(=O)c2cc3ccccc3o2)cc1
- IC50 (Acetylcholinesterase): 0.908 µM
- Activity [1]: 25%
- Activity [2]: 35%

SMILES: O=C(/C=C/Nc1cccc(Br)c1)c1cc2ccccc2o1
- IC50 (Acetylcholinesterase): 0.313 µM
- Activity [1]: 9.29%
- Activity [2]: 17.9%

SMILES: O=C(/C=C/Nc1ccc(Br)cc1)c1cc2ccccc2o1
- IC50 (Acetylcholinesterase): 1.1 µM
- Activity [1]: 22.2%
- Activity [2]: 27%

SMILES: O=C(/C=C/Nc1ccccc1O)c1cc2ccccc2o1
- IC50 (Acetylcholinesterase): 0.308 µM
- Activity [1]: 65.5%
- Activity [2]: 90%

SMILES: O=C(/C=C/Nc1ccc(Cl)cc1)c1cc2ccccc2o1
- IC50 (Acetylcholinesterase): 2.14 µM
- Activity [1]: 28.2%
- Activity [2]: 65.3%

SMILES: O=C(/C=C/Nc1ccccc1C(=O)O)c1cc2ccccc2o1
- IC50 (Acetylcholinesterase): 2.07 µM
- Activity [1]: 23.5%
- Activity [2]: 65%

SMILES: CN(C)/C=C/C(=O)c1cc2ccccc2o1
- IC50 (Acetylcholinesterase): 2.69 µM
- Activity [1]: 11.4%
- Activity [2]: 56.4%

SMILES: Cc1cc(NS(=O)(=O)c2ccc(N/C=C/C(=O)c3cc4ccccc4o3)cc2)no1
- IC50 (Acetylcholinesterase): 0.283 µM
- Activity [1]: 71.7%
- Activity [2]: 65.2%

SMILES: Cc1cccc(N/C=C/C(=O)c2cc3ccccc3o2)c1
- IC50 (Acetylcholinesterase): 0.617 µM
- Activity [1]: 12.1%
- Activity [2]: 14.3%

SMILES: O=C(/C=C/Nc1ccc(S(=O)(=O)Nc2ncccn2)cc1)c1cc2ccccc2o1
- IC50 (Acetylcholinesterase): 0.357 µM
- Activity [1]: 5%
- Activity [2]: 37.5%

SMILES: O=C(/C=C/Nc1ccc(F)cc1)c1cc2ccccc2o1
- IC50 (Acetylcholinesterase): 0.487 µM
- Activity [1]: 73.9%
- Activity [2]: 76.1%

Source: ChEMBL document CHEMBL5625253, “Discovery of novel benzofuran-based derivatives as acetylcholinesterase inhibitors for the treatment of Alzheimer's disease: Design, synthesis, biological evaluation, molecular docking and 3D-QSAR investigation” (Eur J Med Chem, 2023)
